Results from the Kinase Knowledgebase extract (Sharma et al. 2016).

The compounds below were run against MAPK14 (human) (UniProt Q16539) (assay: Inhibition of MAPK14 Kinase Activity). Conditions: Monocyte.
Chain of MAPK14 (human) (Q16539 whole entry, looked up): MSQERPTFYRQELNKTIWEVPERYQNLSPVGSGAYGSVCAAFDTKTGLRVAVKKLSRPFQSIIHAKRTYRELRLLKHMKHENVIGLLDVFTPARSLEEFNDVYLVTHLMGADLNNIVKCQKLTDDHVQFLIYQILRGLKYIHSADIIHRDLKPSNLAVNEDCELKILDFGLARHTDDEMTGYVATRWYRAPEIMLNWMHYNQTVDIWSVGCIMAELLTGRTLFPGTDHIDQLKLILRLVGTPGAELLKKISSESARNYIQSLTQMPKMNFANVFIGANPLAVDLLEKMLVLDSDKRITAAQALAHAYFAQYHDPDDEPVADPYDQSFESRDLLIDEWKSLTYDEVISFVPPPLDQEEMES

IC50 [nM] | SMILES
< 1000 | Cc1cc(OCc2ccc(F)cc2F)c(Cl)c(=O)n1Cc1ccc2c(c1)CN(C(=O)C(C)(C)O)C2
< 1000 | Cc1cc(OCc2ccc(F)cc2F)c(Br)c(=O)n1-c1c(F)cc(/C=C/CO)cc1F
< 1000 | Cc1cc(OCc2ccc(F)cc2F)c(Br)c(=O)n1Cc1cc[nH]n1
< 1000 | Cc1ccc(C(N)=O)cc1-n1c(C)cc(OCc2ccc(F)cc2CNC(=O)NC2CC2)c(Cl)c1=O
1000 to 25000 | Cc1cc(OCc2ccc(F)cc2F)c(Br)c(=O)n1Cc1ccc(C(=O)NCCO)o1
< 1000 | CNCC(=O)NCc1ccc(Cn2c(C)cc(OCc3ccc(F)cc3F)c(Br)c2=O)cc1
< 1000 | Cc1cc(OCc2ccc(F)cc2F)c(Br)c(=O)n1Cc1cnc(N(C)C)nc1
< 1000 | Cc1ccc(C(N)=O)cc1-n1c(C)cc(OCc2ccc(F)cc2F)c(Br)c1=O
< 1000 | Cc1cc(OCc2ccc(F)cc2F)c(Br)c(=O)n1-c1ccc(CNC(=O)C(C)(C)O)cc1
< 1000 | Cc1cc(OCc2ccc(F)cc2F)c(Br)c(=O)n1Cc1cnc(CNC(=O)CN)nc1
< 1000 | Cc1cc(OCc2ccc(F)cc2F)c(Br)c(=O)n1Cc1ccc(C(=O)N2CCOCC2)o1
1000 to 25000 | CNC(=O)c1ccc(C(C)n2c(C)cc(OCc3ccc(F)cc3F)c(Br)c2=O)cc1 (stereo not given)
25000 to 100000 | Cc1cc(OCc2ccc(F)cc2C(N)=O)c(Br)c(=O)n1-c1c(F)cccc1F
< 1000 | Cc1cc(OCc2ccc(F)cc2F)c(Br)c(=O)n1-c1c(F)cc(C(O)COC(N)=O)cc1F (stereo not given)
1000 to 25000 | Cc1cc(OCc2ccc(F)cc2F)c(Br)c(=O)n1-c1ccc(C(=O)N(C)C)cc1C(F)(F)F
